Tests used:
[1] = In vitro release of Ciprofloxacin from cast hydrophilic polyurethane film in phosphate buffer; assay type: physicochemical; conditions: core loading 6.0 wt %, 37 C
Protocol: A cast film of polyurethane containing Ciprofloxacin was made by reacting hydrophilic polyurethane prepolymer (Urepol 1002A obtained from Envirochem) with distilled water. The reacting mixture was spread in a thin film over a glass petri dish. The film was cured overnight and dried to leave a thin film of polyurethane containing Ciprofloxacin. The resultant drug carrying film was further vacuum-dried. The drug loading was measured to be 0.06 gms per 1 gm of coated film, i.e. 6.0 wt %.
The drug carrying film was placed in phosphate buffer at 37 C and a pH of 7.4 and the Ciprofloxacin in vitro release was measured.

[2] = In vitro release of Thio-TEPA from polyurethane-coated polyurethane foam substrate in phosphate buffer; assay type: physicochemical; conditions: core loading 0.9 wt %, 37 C
Protocol: A reticulated TDI/polyether based foam (SIF grade obtained from Foamex) was used as a scaffold or substrate. The foam substrate was 4″×4″ (10.2 cm×10.2 cm) square sample with a thickness of ¼″ or 0.635 cm with a volume of 65.5 cm^3 and weighed 1.2 g, giving a density of 0.0183 gms/cc. 2.42 grams of hydrophilic polyurethane prepolymer (Urepol 1002A obtained from Envirochem) and 64 milligrams of Thio-TEPA was diluted in 6 ml of DMF. The foam was dipped into the solution mixture of polyurethane prepolymer, Thio-TEPA and DMF. The Thio-TEPA containing solution mixture of polyurethane prepolymer and DMF was then distributed and spread over the foam substrate. During the spreading and distribution, it was ensured that solution mixture contacted the foam substrate from all sides and coated both the surface and internal pores of the foam substrate.
The foam substrate with coated solution mixture was held overnight below 8° C. The coating was cured by the reaction of the ambient moisture with the available reactive isocyanate in the prepolymer. After the overnight curing, the foam substrate with coated solution mixture was vacuum-dried to remove residual solvents to leave a coating of polyurethane containing Thio-TEPA.
The final weight of the foam substrate and the drug loaded coating was 3.24 gms. Density of the coated foam substrate was 0.0495 gms/cc. The drug loading was 0.009 gms per 1 gm of coated foam substrate, i.e. 0.9 wt %. The drug entrapment efficiency was 50% calculated from a final measures drug loading of 0.9 wt % and a theoretical drug loading of 1.8 wt %. The weight of the drug in the final coated foam substrate was 0.029 gms or 29 mgs with the drug density on the coated foam substrate being 0.44 mgs per cc.
The coated foam substrate was placed in phosphate buffer at 37 C, and a pH of 7.4 and the Thio-TEPA in vitro release was measured.

[3] = Immobilization of collagenase in composite foam polymer system; conditions: composite foam (hydrophobic polyurethane scaffold with hydrophilic polyurethane coating)

O=C(O)c1cn(C2CC2)c2cc(N3CCNCC3)c(F)cc2c1=O [Ciprofloxacin]
Cumulative Release, % at Day 1 ([1]; pH 7.4, Day 1): 15.7%
Cumulative Release, % at Day 3 ([1]; pH 7.4, Day 3): 16.8%
Cumulative Release, % at Day 4 ([1]; pH 7.4, Day 4): 29.28%

S=P(N1CC1)(N1CC1)N1CC1 [Thio-Tepa, Thio-TEPA]
Cumulative Release, % at Day 1 ([2]; pH 7.4, Day 1): 11.9%
Cumulative Release, % at Day 3 ([2]; pH 7.4, Day 3): 43.7%
Cumulative Release, % at Day 6 ([2]; pH 7.4, Day 6): 66.6%

collagenase
enzymatic activity after immobilization within the polymer system [3]: retain enzymatic activity

Source: patent US20040260272A1, “Method and system for intravesicular delivery of therapeutic agents” (priority 2002, published 2004)
